The target in the experiment is T1, human P2X2/3 receptors (Homo sapiens, UniProt P56373+Q9UBL9).
T1 construct: expressed in transfected cells
T1 sequence (Q9UBL9 1-404 isoform Q9UBL9-2): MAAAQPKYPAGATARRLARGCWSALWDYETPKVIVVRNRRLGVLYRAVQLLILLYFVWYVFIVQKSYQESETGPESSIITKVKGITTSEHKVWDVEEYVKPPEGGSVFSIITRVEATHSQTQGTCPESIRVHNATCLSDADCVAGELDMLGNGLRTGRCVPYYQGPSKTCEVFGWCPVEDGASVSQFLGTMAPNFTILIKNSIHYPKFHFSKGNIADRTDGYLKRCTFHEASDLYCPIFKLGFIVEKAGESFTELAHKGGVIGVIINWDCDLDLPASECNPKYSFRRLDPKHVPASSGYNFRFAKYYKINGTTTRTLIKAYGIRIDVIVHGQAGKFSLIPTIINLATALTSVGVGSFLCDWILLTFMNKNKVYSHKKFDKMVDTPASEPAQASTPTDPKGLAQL
T1 sequence (P56373 1-397): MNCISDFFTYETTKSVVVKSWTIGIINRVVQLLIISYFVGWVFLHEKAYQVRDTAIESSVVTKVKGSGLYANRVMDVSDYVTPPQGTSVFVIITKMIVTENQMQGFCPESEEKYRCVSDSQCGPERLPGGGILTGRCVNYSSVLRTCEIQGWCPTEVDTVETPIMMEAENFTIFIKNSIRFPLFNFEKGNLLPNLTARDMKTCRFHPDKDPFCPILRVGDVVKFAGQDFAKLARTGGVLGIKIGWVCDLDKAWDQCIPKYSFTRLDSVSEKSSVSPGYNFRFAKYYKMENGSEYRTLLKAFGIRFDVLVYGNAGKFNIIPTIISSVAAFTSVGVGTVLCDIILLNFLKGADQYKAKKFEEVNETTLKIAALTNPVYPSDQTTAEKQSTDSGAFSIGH
Description: Whole-cell patch-clamp concentration-activation, HEK293 cells stably expressing hP2X2/3. The conditions noted are these: for Hill: hP2X2/3, Hill coefficient of concentration-activation fit; for Effect (Fold in ATP Efficacy): hP2X2/3, relative to current at 100 µM ATP; for EC50: hP2X2/3, whole-cell, -50 mV, divalent-cation-free bath with 10 mM EGTA, normalised to 100 µM ATP. The class given is cell-based. The method, then:
Human P2X receptors were expressed from HEK293 cell lines containing an inducible promoter system (Flp-In-T-REx 293, Invitrogen, Waltham, MA, USA). The used cell lines were: hP2X2 B (RRID: AC line CVCL_D6U1), hP2X3 (RRID: AC line CVCL_D6U3), and hP2X2/3 (RRID: AC line CVCL_D6U2). The cells were cultured in MEM supplemented with non-essential amino acids (Gibco, Waltham, MA, USA), 10% FCS, and antibiotics, according to the manufacturer’s instructions. For stable cell lines, Flp-In-T-REx 293 cells were transfected using the calcium phosphate method with a mixture of plasmids (0.3 µg pcDNA5/FRT/TO P2X gene and 1.5 µg pOG44) and selected for hygromycin resistance. The cells were seeded on glass coverslips for electrophysiological measurements and used 24–48 h after tetracycline induction ([…]).
Membrane currents were recorded with a standard patch-clamp technique in the whole-cell configuration. The patch pipettes were pulled from borosilicate glass (ID 1.0 mm, OD 2.0 mm; VITROCOM, Mountain Lakes, NJ, USA) using a micropipette puller (P-97, Sutter Instrument, Novato, CA, USA). The pipettes were filled with intracellular solution containing (mM) 142 NaCl, 5 BAPTA, 5 EGTA, and 10 HEPES at pH 7.4. The pipette resistance was from 2.0 to 6.0 MΩ. The bath solution contained (mM) 142 NaCl, 10 EGTA, 10 HEPES, and 10 glucose at pH 7.4. To increase the speed of recovery from the hP2X3 receptors, we additionally used a bath solution containing (mM) 142 NaCl, 10 HEPES, 10 glucose, 2 CaCl2, and 1 MgCl2. The cells were lifted for recording from the chamber bottom by the patch pipette and positioned in front of the outlet of the application pipette.
Solutions switches were carried out with the application pipette that had three barrels (inner diameter ~600 µm, Warner Instruments) controlled by a step motor (SF-77B, Warner Instruments). The speed of the laminar solution flow out of the barrels was estimated to be 2–5 cm/s. One barrel contained a control solution and another was connected to a solution selector (Vici Valco Instruments), which allowed us to apply different test solutions by exchanging the solution during the interval (60 sec for P2X2 and P2X2/3 receptors, 180 s for P2X3 receptors) of applying the control solution. Cells expressing hP2X3 were washed with 3 Units/mL apyrase for 30 min to remove ATP. To ensure the comparability of the data points between each application, we rinsed hP2X3 with the following solution for 3 min after each ATP application (mM): 142 NaCl, 10 HEPES, 10 glucose, 2 CaCl2, and 1 MgCl2 at pH 7.4. After sufficient recovery, we switched to the bath solution for 10 s and then to the solution of interest. The speed of the switch around a whole cell was estimated to be below 10 ms by switching between different salt solutions.
The saturation of activation was determined with ATP at 100 µM. The currents were recorded with a HEKA EPC 10 amplifier in combination with the patchmaster software. The sampling rate was 10 kHz and the recordings were on-line filtered at 2.9 kHz using a four-pole Bessel filter. The currents were recorded at a constant holding potential of −50 mV and the series resistance was compensated with the patchmaster software up to 80%.
The concentration–activation relationships from whole-cell measurements in the HEK293 cells were obtained from the maximum currents during ATP application. These current amplitudes were normalised with respect to the current at saturating ATP (100 µM) and the resulting data points were fitted I/ImaxATP = Amp/(1 + (EC50/[X])^h) (1) with the Origin 2019® software using a non-linear curve fitting routine. I is the actual current amplitude and ImaxATP is the maximum current amplitude at saturating ATP. The amplitude Amp is the efficacy of the respective ligands. EC50 is the ligand concentration generating the half-maximum current and h is the respective Hill coefficient. [X] is the actual concentration of ATP to be tested. […]
For orientation: In patch-clamp work, channel activity is measured electrically.

Each structure is given as a SMILES string.

What is called EC50 is the midpoint of the concentration-response curve. On to `COCC[N+]1=C(C=CC=C2N(CCCCCC(=O)NCCCCCCSc3nc(N)c4ncn(C5OC(COP(=O)(O)CP(=O)(O)OP(=O)(O)O)C(O)C5O)c4n3)c3ccc(S(=O)(=O)O)cc3C2(C)C)C(C)(C)c2cc(S(=O)(=O)[O-])ccc21` (stereo not drawn) [α,βMe-fATP, 2-[DY-547P1]-AHT-α,βMe-ATP], for which the Hill came to 4.4 ± 3.5, the “Effect (Fold in ATP Efficacy)” value was determined as 0.03 fold and the EC50 was found to be 1500 ± 600 nM. In addition, the “Effect (Fold in ATP Potency)” value (hP2X2/3, relative to ATP) is on record as 1.8 fold.

Regarding `COCC[N+]1=C(C=CC=C2N(CCCCCC(=O)NCCCCCCSc3nc(N)c4ncn(C5OC(COP(=O)(O)OP(=O)(O)OP(=O)(O)O)C(O)C5O)c4n3)c3ccc(S(=O)(=O)O)cc3C2(C)C)C(C)(C)c2cc(S(=O)(=O)[O-])ccc21` (centres unmarked) [fATP, 2-[DY-547P1]-AHT-ATP], the Hill came to 0.9 ± 0.2, the “Effect (Fold in ATP Efficacy)” value is given as 0.4 fold and the EC50 was determined as 700 ± 300 nM. Further, the “Agonist behaviour (current response)” value (hP2X2/3, result in words) was “partial agonist”.

The values are drawn from PMC11352409, “Subtype-Specific Ligand Binding and Activation Gating in Homomeric and Heteromeric P2X Receptors” (Biomolecules, 2024).
